Measurements published in patent US7503965B2, “Azo compound, ink composition, and colored object” (Nippon Kayaku Kabushiki Kaisha, priority 2004, dated 2009).

assay: solubility in water (ammonia alkali) by filter paper spot; format: physicochemical; conditions: aqueous buffer

solubility, ≥ 100 mg/mL:
Nc1c(N=Nc2ccc3c(O)c(N=Nc4ccc(N=Nc5c(C(=O)O)nn(-c6cc(C(=O)O)cc(C(=O)O)c6)c5O)c(S(=O)(=O)O)c4)c(S(=O)(=O)O)cc3c2S(=O)(=O)O)cc(S(=O)(=O)O)c2cc(S(=O)(=O)O)c(N=Nc3ccc([N+](=O)[O-])cc3S(=O)(=O)O)c(O)c12 [compound 27]
Nc1c(N=Nc2ccc3c(O)c(N=Nc4ccc(N=Nc5c(C(=O)O)nn(-c6cc(S(=O)(=O)O)ccc6S(=O)(=O)O)c5O)c(S(=O)(=O)O)c4)c(S(=O)(=O)O)cc3c2S(=O)(=O)O)cc(S(=O)(=O)O)c2cc(S(=O)(=O)O)c(N=Nc3ccc([N+](=O)[O-])cc3S(=O)(=O)O)c(O)c12 [compound 21]
Nc1c(N=Nc2ccc3c(O)c(N=Nc4ccc(N=Nc5c(C(=O)O)nn(-c6ccc(S(=O)(=O)O)cc6)c5O)c(S(=O)(=O)O)c4)c(S(=O)(=O)O)cc3c2S(=O)(=O)O)cc(S(=O)(=O)O)c2cc(S(=O)(=O)O)c(N=Nc3ccc([N+](=O)[O-])cc3S(=O)(=O)O)c(O)c12 [compound 1]
Nc1c(N=Nc2ccc3c(O)c(N=Nc4cc(C(=O)O)c(N=Nc5c(C(=O)O)nn(-c6ccc(S(=O)(=O)O)cc6)c5O)c(S(=O)(=O)O)c4)c(S(=O)(=O)O)cc3c2S(=O)(=O)O)cc(S(=O)(=O)O)c2cc(S(=O)(=O)O)c(N=Nc3ccc([N+](=O)[O-])cc3S(=O)(=O)O)c(O)c12 [compound 26]
Nc1c(N=Nc2ccc3c(O)c(N=Nc4cc(S(=O)(=O)O)c(N=Nc5c(C(=O)O)nn(-c6ccc(S(=O)(=O)O)cc6)c5O)cc4S(=O)(=O)O)c(S(=O)(=O)O)cc3c2S(=O)(=O)O)cc(S(=O)(=O)O)c2cc(S(=O)(=O)O)c(N=Nc3ccc([N+](=O)[O-])cc3S(=O)(=O)O)c(O)c12 [compound 9]
COc1cc([N+](=O)[O-])c(S(=O)(=O)O)cc1N=Nc1c(S(=O)(=O)O)cc2c(S(=O)(=O)O)cc(N=Nc3ccc4c(O)c(N=Nc5ccc(N=Nc6c(C(=O)O)nn(-c7ccc(S(=O)(=O)O)cc7)c6O)c(S(=O)(=O)O)c5)c(S(=O)(=O)O)cc4c3S(=O)(=O)O)c(N)c2c1O [compound 24]
Nc1c(N=Nc2ccc3c(O)c(N=Nc4ccc(N=Nc5c(C(=O)O)nn(-c6ccc(S(=O)(=O)O)cc6)c5O)c(S(=O)(=O)O)c4)c(S(=O)(=O)O)cc3c2S(=O)(=O)O)cc(S(=O)(=O)O)c2cc(S(=O)(=O)O)c(N=Nc3ccc(S(=O)(=O)O)cc3[N+](=O)[O-])c(O)c12 [compound 22]
Nc1c(N=Nc2ccc3c(O)c(N=Nc4cc(S(=O)(=O)O)c(N=Nc5c(C(=O)O)nn(-c6ccc(S(=O)(=O)O)cc6)c5O)cc4S(=O)(=O)O)c(S(=O)(=O)O)cc3c2S(=O)(=O)O)cc(S(=O)(=O)O)c2cc(S(=O)(=O)O)c(N=Nc3ccc(S(=O)(=O)O)cc3[N+](=O)[O-])c(O)c12 [compound 23]
Nc1c(N=Nc2ccc3c(O)c(N=Nc4ccc(S(=O)(=O)O)c(/N=N/c5c(C(=O)O)nn(-c6ccc(S(=O)(=O)O)cc6)c5O)c4)c(S(=O)(=O)O)cc3c2S(=O)(=O)O)cc(S(=O)(=O)O)c2cc(S(=O)(=O)O)c(N=Nc3ccc([N+](=O)[O-])cc3S(=O)(=O)O)c(O)c12 [compound 13]
Nc1c(N=Nc2ccc3c(O)c(N=Nc4cc(Cl)c(N=Nc5c(C(=O)O)nn(-c6ccc(S(=O)(=O)O)cc6)c5O)c(S(=O)(=O)O)c4)c(S(=O)(=O)O)cc3c2S(=O)(=O)O)cc(S(=O)(=O)O)c2cc(S(=O)(=O)O)c(N=Nc3ccc([N+](=O)[O-])cc3S(=O)(=O)O)c(O)c12 [compound 25]
